From ChEMBL document CHEMBL4800726, “Data for DCP probe MSC-4381” (2021)

Columns and labels:
[1] = biological target: Adenosine receptor A2a (Homo sapiens) (UniProt P29274); assay: A2A (h) Eurofins-Cerep binding assay; design: ligand concentration 6 nM; details: filed as agonist, Compound concentration 10.0 uM
[2] = biological target: Adrenergic receptor alpha-2 (Rattus norvegicus) (UniProt P22086+P19328+P22909); assay: Alpha2 (non-selective) Eurofins-Cerep binding assay; assay type: protein assay; design: ligand concentration 1 nM; details: filed as antagonist, Compound concentration 10.0 uM
[3] = biological target: Beta-2 adrenergic receptor (Homo sapiens) (UniProt P07550); assay: Beta2 (h) Eurofins-Cerep binding assay; details: filed as antagonist, Compound concentration 10.0 uM
[4] = biological target: Endothelin-1 receptor (Homo sapiens) (UniProt P25101); assay: ETA (h) Eurofins-Cerep binding assay; design: ligand concentration 0.03 nM; details: filed as agonist, Compound concentration 10.0 uM
[5] = biological target: GABA-A receptor; anion channel (Rattus norvegicus) (UniProt O09028+P15431+P18506+P18508+P19969+P20236+P23574+P23576+P28471+P28473+P30191+P62813+P63079+P63138+Q91ZM7+Q9ES14); assay: GABA (non-selective) Eurofins-Cerep binding assay; assay type: protein-complex assay; design: ligand concentration 10 nM; details: filed as agonist, Compound concentration 10.0 uM
[6] = biological target: C-C chemokine receptor type 1 (Homo sapiens) (UniProt P32246); assay: CCR1 (h) Eurofins-Cerep binding assay; design: ligand concentration 0.01 nM; details: filed as agonist, Compound concentration 10.0 uM
[7] = biological target: Histamine H1 receptor (Homo sapiens) (UniProt P35367); assay: H1 (h) Eurofins-Cerep binding assay; design: ligand concentration 1 nM; details: filed as antagonist, Compound concentration 10.0 uM
[8] = biological target: Melatonin receptor type 1A (Homo sapiens) (UniProt P48039); assay: MT1 (ML1A) (h) Eurofins-Cerep binding assay; design: ligand concentration 0.01 nM; details: filed as agonist, Compound concentration 10.0 uM
Melatonin receptor type 1A (Homo sapiens), sequence (P48039 whole entry): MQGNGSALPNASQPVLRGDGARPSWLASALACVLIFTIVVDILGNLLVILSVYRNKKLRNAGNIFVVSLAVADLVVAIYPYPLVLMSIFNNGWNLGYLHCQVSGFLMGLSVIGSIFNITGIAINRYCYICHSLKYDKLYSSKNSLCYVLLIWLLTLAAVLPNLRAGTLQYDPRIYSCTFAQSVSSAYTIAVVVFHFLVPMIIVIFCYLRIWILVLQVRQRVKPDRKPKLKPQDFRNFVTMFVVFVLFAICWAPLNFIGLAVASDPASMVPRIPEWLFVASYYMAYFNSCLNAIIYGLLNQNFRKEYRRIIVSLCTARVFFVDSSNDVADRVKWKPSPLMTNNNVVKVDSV

[9] = biological target: T1, Muscarinic acetylcholine receptor M5 (Homo sapiens) (UniProt P08912); assay: M5 (h) Eurofins-Cerep binding assay; design: ligand concentration 0.3 nM; details: filed as antagonist, Compound concentration 10.0 uM
T1 sequence (whole entry): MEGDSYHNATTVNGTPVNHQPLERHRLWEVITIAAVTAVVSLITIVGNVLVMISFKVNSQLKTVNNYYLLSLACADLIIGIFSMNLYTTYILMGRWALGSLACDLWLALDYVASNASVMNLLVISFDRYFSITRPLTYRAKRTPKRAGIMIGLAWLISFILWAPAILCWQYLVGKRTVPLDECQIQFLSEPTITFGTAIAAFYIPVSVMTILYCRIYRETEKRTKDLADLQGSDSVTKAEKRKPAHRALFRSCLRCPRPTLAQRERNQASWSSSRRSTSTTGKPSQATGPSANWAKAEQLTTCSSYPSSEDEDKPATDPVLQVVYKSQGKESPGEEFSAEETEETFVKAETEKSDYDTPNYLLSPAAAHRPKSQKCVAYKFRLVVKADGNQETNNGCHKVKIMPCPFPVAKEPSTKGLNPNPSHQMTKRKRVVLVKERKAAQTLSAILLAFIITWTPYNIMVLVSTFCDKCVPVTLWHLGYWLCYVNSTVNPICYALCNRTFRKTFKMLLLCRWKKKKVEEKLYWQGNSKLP

[10] = biological target: Neuromedin-K receptor (Homo sapiens) (UniProt P29371); assay: NK3 (h) Eurofins-Cerep binding assay; design: ligand concentration 0.4 nM; details: filed as antagonist, Compound concentration 10.0 uM
[11] = biological target: Neuropeptide Y receptor type 1 (Homo sapiens) (UniProt P25929); assay: Y1 (h) Eurofins-Cerep binding assay; design: ligand concentration 0.025 nM; details: filed as agonist, Compound concentration 10.0 uM
Neuropeptide Y receptor type 1 (Homo sapiens), sequence (P25929 whole entry): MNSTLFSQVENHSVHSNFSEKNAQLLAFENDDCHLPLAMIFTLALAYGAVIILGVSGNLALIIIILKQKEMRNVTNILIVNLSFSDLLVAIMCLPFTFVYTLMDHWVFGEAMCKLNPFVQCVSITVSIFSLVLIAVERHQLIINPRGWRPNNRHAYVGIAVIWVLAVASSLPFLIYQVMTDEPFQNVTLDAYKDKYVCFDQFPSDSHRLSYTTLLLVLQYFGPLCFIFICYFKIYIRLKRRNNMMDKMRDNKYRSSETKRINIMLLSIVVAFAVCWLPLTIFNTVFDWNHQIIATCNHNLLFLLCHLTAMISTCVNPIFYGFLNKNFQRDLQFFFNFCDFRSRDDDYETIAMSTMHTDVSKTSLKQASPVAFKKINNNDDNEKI

[12] = biological target: Neuropeptide Y receptor type 2 (Homo sapiens) (UniProt P49146); assay: Y2 (h) Eurofins-Cerep binding assay; design: ligand concentration 0.015 nM; details: filed as agonist, Compound concentration 10.0 uM
Neuropeptide Y receptor type 2 (Homo sapiens), sequence (P49146 whole entry): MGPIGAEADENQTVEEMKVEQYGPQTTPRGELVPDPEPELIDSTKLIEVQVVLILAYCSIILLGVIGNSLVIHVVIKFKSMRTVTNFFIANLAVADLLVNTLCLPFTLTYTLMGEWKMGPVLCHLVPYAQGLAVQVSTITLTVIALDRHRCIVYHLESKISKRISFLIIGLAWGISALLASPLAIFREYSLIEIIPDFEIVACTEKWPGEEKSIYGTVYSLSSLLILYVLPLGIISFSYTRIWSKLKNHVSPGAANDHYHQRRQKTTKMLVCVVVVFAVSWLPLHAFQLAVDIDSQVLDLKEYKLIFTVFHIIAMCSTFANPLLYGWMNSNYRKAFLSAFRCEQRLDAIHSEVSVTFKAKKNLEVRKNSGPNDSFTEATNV

[13] = biological target: Neurotensin receptor type 1 (Homo sapiens) (UniProt P30989); assay: NTS1 (NT1) (h) Eurofins-Cerep binding assay; design: ligand concentration 0.05 nM; details: filed as agonist, Compound concentration 10.0 uM
[14] = biological target: Kappa-type opioid receptor (Homo sapiens) (UniProt P41145); assay: kappa (h) (KOP) Eurofins-Cerep binding assay; design: ligand concentration 0.5 nM; details: filed as agonist, Compound concentration 10.0 uM
Kappa-type opioid receptor (Homo sapiens), sequence (P41145 whole entry): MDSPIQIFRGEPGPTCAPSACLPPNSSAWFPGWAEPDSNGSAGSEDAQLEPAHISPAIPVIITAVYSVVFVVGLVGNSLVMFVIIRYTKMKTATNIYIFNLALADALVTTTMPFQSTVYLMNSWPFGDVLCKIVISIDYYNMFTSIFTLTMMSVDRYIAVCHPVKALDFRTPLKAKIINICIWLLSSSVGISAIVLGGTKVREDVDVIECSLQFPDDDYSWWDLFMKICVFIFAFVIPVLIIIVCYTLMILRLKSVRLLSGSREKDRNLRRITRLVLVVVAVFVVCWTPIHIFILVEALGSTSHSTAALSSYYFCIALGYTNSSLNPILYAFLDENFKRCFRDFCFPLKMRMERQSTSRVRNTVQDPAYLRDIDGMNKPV

[15] = biological target: Mu-type opioid receptor (Homo sapiens) (UniProt P35372); assay: mu (MOP) (h) Eurofins-Cerep binding assay; design: ligand concentration 0.5 nM; details: filed as agonist, Compound concentration 10.0 uM
Mu-type opioid receptor (Homo sapiens), sequence (P35372 whole entry): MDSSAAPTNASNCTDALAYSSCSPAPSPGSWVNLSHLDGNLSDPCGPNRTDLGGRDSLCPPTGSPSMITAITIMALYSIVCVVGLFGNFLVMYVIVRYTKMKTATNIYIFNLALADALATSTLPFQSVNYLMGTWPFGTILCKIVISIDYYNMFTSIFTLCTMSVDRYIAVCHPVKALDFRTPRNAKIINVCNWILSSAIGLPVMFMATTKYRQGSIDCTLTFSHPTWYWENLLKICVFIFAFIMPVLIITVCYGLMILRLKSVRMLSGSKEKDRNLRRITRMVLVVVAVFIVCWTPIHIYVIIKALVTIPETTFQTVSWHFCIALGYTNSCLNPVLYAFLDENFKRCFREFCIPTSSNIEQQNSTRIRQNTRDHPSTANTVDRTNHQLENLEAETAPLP

[16] = biological target: 5-hydroxytryptamine receptor 1B (Homo sapiens) (UniProt P28222); assay: 5-HT1B(h) Eurofins-Cerep binding assay; design: ligand concentration 1 nM; details: filed as antagonist, Compound concentration 10.0 uM
[17] = biological target: 5-hydroxytryptamine receptor 5A (Homo sapiens, UniProt P47898); assay: 5-HT5a (h) Eurofins-Cerep binding assay; design: ligand concentration 1.5 nM; details: filed as agonist, Compound concentration 10.0 uM
[18] = biological target: 5-hydroxytryptamine receptor 6 (Homo sapiens, UniProt P50406); assay: 5-HT6 (h) Eurofins-Cerep binding assay; design: ligand concentration 2 nM; details: filed as agonist, Compound concentration 10.0 uM
5-hydroxytryptamine receptor 6, sequence (P50406 whole entry): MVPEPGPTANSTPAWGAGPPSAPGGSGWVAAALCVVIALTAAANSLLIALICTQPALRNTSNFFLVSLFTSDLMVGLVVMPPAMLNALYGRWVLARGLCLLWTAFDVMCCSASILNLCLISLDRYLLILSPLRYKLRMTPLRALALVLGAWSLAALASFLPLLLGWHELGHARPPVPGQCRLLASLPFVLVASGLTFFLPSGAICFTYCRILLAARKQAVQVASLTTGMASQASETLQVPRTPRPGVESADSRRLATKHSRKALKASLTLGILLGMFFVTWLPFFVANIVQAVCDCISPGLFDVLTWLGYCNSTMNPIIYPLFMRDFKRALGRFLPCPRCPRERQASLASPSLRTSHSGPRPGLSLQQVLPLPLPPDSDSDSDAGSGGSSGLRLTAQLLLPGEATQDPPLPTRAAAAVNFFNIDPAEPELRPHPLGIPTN

[19] = biological target: 5-hydroxytryptamine receptor 7 (Homo sapiens) (UniProt P34969); assay: 5-HT7 (h) Eurofins-Cerep binding assay; design: ligand concentration 4 nM; details: filed as agonist, Compound concentration 10.0 uM
[20] = biological target: Somatostatin receptor (Mus musculus) (UniProt P30935+O08858+P30875+P30873+P49660); assay: sst (non-selective) Eurofins-Cerep binding assay; assay type: protein assay; design: ligand concentration 0.05 nM; details: filed as agonist, Compound concentration 10.0 uM
[21] = biological target: Vasoactive intestinal polypeptide receptor 1 (Homo sapiens) (UniProt P32241); assay: VPAC1 (VIP1) (h) Eurofins-Cerep binding assay; design: ligand concentration 0.04 nM; details: filed as agonist, Compound concentration 10.0 uM
[22] = biological target: L-type Ca2+ channel (dihydropyridine site) (Rattus norvegicus, UniProt P22002+P27732+Q02485); assay: Ca2+ channel (L, dihydropyridine site) Eurofins-Cerep binding assay; assay type: protein assay; design: incubation time 90 min, incubation temperature RT, ligand concentration 0.1 nM; details: rat cerebral cortex, probe [3H]nitrendipine, compound concentration 10 uM, read-out: % Inhibition of Control Specific Binding (Mean n=2)
Rattus norvegicus = organism: Rattus norvegicus; assay: KV channel Eurofins-Cerep binding assay; details: filed as antagonist, Compound concentration 10.0 uM
Na+ channel (site 2) = Na+ channel (site 2) (Rattus norvegicus, UniProt F1LQQ7+O08562+O88420+O88457+P04774+P04775+P08104+P15389+P15390+Q62968); assay: Na+ channel (site 2) Eurofins-Cerep binding assay; assay type: protein assay; design: incubation time 60 min, incubation temperature 37°C, ligand concentration 10 nM; details: rat cerebral cortex, probe [3H]batrachotoxin, compound concentration 10 uM, read-out: % Inhibition of Control Specific Binding (Mean n=2)
[23] = biological target: Sodium-dependent dopamine transporter (Homo sapiens, UniProt Q01959); assay: dopamine transporter (h) Eurofins-Cerep binding assay; design: ligand concentration 4 nM; details: filed as antagonist, Compound concentration 10.0 uM
[24] = biological target: Sodium-dependent serotonin transporter (Homo sapiens) (UniProt P31645); assay: 5-HT transporter (h) Eurofins-Cerep binding assay; design: ligand concentration 2 nM; details: filed as antagonist, Compound concentration 10.0 uM
Sodium-dependent serotonin transporter (Homo sapiens), sequence (P31645 whole entry, looked up): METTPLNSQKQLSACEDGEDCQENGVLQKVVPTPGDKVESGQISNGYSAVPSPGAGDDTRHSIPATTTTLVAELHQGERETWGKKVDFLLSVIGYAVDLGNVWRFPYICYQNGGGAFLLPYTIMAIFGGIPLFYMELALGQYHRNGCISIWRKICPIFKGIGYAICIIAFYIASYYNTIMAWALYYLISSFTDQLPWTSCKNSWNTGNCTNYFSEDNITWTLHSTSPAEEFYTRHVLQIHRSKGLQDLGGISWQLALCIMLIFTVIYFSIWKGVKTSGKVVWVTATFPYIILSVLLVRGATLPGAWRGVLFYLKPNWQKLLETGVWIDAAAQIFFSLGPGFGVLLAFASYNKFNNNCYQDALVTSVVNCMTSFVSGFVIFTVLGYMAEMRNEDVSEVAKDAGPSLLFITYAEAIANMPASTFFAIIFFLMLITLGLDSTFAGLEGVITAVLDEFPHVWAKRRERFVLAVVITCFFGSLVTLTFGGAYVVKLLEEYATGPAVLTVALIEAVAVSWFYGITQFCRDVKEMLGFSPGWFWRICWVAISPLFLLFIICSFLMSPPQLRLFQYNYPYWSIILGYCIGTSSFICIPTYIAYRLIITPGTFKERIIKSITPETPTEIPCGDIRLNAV

[25] = biological target: Vasopressin V1a receptor (Homo sapiens) (UniProt P37288); assay: V1a (h) Eurofins-Cerep Cellular and Nuclear Receptor Functional Assays; details: Compound concentration 10.0 uM
Vasopressin V1a receptor (Homo sapiens), sequence (P37288 whole entry, looked up): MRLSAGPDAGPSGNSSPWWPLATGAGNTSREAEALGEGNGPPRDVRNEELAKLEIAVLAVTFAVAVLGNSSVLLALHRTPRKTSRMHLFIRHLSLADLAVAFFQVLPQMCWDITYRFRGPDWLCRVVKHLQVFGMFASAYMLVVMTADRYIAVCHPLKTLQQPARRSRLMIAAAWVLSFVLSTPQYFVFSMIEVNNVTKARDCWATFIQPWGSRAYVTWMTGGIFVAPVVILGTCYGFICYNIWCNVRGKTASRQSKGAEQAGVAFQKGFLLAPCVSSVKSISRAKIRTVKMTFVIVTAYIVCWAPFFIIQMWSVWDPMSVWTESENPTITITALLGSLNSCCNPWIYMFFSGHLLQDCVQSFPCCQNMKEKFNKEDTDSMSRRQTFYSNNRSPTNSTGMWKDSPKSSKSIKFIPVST

[26] = biological target: Histamine H2 receptor (Homo sapiens) (UniProt P25021); details: Compound concentration 10.0 uM
Histamine H2 receptor (Homo sapiens), sequence (P25021 whole entry): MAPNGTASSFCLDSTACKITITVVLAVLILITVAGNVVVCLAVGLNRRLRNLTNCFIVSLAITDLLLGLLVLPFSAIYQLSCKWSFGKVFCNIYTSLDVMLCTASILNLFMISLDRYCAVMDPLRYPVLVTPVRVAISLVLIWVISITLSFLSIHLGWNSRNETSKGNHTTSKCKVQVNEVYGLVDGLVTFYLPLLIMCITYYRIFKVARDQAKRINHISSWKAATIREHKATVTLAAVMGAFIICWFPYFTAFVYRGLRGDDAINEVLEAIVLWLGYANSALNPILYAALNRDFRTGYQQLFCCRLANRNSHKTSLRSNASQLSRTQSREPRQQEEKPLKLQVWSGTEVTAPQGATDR

[27] = biological target: Muscarinic acetylcholine receptor M3 (Homo sapiens) (UniProt P20309); details: Compound concentration 10.0 uM
Muscarinic acetylcholine receptor M3 (Homo sapiens), sequence (P20309 whole entry, looked up): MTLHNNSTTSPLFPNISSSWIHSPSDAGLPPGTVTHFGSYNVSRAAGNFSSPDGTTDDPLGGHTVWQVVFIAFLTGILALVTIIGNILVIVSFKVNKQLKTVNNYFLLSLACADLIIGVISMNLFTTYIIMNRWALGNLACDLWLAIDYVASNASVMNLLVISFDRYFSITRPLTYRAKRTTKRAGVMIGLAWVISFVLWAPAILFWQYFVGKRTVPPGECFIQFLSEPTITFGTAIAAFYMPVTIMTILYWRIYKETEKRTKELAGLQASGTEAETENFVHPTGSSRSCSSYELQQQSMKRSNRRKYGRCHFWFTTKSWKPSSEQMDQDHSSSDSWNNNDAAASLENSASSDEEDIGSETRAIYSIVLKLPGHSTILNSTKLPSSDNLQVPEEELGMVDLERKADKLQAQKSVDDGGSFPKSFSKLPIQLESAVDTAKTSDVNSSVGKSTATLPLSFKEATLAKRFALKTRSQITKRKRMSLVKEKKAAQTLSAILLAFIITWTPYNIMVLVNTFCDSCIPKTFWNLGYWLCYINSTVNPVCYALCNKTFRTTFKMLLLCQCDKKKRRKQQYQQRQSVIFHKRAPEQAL

[28] = biological target: Delta-type opioid receptor (Homo sapiens, UniProt P41143); assay: GPCRScan assay: inhibition of DOR; design: radioligand conc. used [nm] 1.0 – 2.0, parental cells stable HEK
Delta-type opioid receptor, sequence (P41143 whole entry): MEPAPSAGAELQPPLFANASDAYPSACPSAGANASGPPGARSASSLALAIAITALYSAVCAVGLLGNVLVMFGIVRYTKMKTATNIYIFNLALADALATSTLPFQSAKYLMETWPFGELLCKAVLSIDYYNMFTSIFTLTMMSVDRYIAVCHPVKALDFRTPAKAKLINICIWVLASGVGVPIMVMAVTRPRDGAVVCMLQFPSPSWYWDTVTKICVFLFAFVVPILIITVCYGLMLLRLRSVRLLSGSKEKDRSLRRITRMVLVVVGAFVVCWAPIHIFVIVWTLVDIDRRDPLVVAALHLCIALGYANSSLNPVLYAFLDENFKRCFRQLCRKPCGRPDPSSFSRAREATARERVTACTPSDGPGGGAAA

[29] = GPCRScan assay: inhibition of GABA/PBR; design: species or system Rattus norvegicus; radioligand conc. used [nm] 0.3 – 2.0, parental cells brain tissue
[30] = biological target: Monocarboxylate transporter 1/4 (Homo sapiens, UniProt P53985+O15427); assay: Lactate efflux inhibition assay (MiaPaCa2 ); assay type: protein assay
[31] = biological target: 5-hydroxytryptamine receptor 1E (Homo sapiens, UniProt P28566); details: Compound concentration 10.0 uM
[32] = biological target: Kappa-type opioid receptor (Homo sapiens) (UniProt P41145); details: Compound concentration 10.0 uM
[33] = biological target: Histamine H3 receptor (Homo sapiens) (UniProt Q9Y5N1); details: Compound concentration 10.0 uM
[34] = biological target: Sigma intracellular receptor 2 (Homo sapiens) (UniProt Q5BJF2); details: Compound concentration 10.0 uM
Sigma intracellular receptor 2 (Homo sapiens), sequence (Q5BJF2 whole entry): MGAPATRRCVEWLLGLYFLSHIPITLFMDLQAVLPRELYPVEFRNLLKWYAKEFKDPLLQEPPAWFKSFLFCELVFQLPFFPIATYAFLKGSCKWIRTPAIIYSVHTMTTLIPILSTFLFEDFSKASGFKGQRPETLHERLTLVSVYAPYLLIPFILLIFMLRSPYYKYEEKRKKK

CCOc1ccc(S(=O)(=O)Nc2ccc(Cl)cc2C#Cc2cnc(C(=O)O)cc2OC)c2ncccc12 [MSC-4381]
% Inhibition of Control Specific Binding (Mean n=2) [1]: -5.5%
% Inhibition of Control Specific Binding (Mean n=2) [2]: -8.2%
% Inhibition of Control Specific Binding (Mean n=2) [3]: -3.7%
% Inhibition of Control Specific Binding (Mean n=2) [4]: -0.2%
% Inhibition of Control Specific Binding (Mean n=2) [5]: 1.2%
% Inhibition of Control Specific Binding (Mean n=2) [6]: -4.3%
% Inhibition of Control Specific Binding (Mean n=2) [7]: 27.6%
% Inhibition of Control Specific Binding (Mean n=2) [8]: 15.3%
% Inhibition of Control Specific Binding (Mean n=2) [9]: -3.3%
% Inhibition of Control Specific Binding (Mean n=2) [10]: -8.7%
% Inhibition of Control Specific Binding (Mean n=2) [11]: -7.5%
% Inhibition of Control Specific Binding (Mean n=2) [12]: 8%
% Inhibition of Control Specific Binding (Mean n=2) [13]: -10.4%
% Inhibition of Control Specific Binding (Mean n=2) [14]: -12.1%
% Inhibition of Control Specific Binding (Mean n=2) [15]: -8.9%
% Inhibition of Control Specific Binding (Mean n=2) [16]: -15.6%
% Inhibition of Control Specific Binding (Mean n=2) [17]: -20.7%
% Inhibition of Control Specific Binding (Mean n=2) [18]: 32%
% Inhibition of Control Specific Binding (Mean n=2) [19]: -6.6%
% Inhibition of Control Specific Binding (Mean n=2) [20]: -21.6%
% Inhibition of Control Specific Binding (Mean n=2) [21]: -3.2%
inhibition at 90 min, 10 µM [22]: -11%
% Inhibition of Control Specific Binding (Mean n=2) (Rattus norvegicus): -5.9%
inhibition at 60 min, 10 µM (Na+ channel (site 2)): -4.9%
% Inhibition of Control Specific Binding (Mean n=2) [23]: 7.8%
% Inhibition of Control Specific Binding (Mean n=2) [24]: 2.4%
% Inhibition of Control Agonist Response (Mean n=2) [25]: 34.9%
% of Control Agonist Response (Mean n=2) [25]: -3.1%
inhibition [26]: 24.2%
inhibition [27]: 9.34%

COc1cc(C(=O)O)ncc1C#Cc1ccccc1NS(=O)(=O)c1cccc2c(N(C)C)ccnc12 [MSC-0516]
Ki ([28]; read-out: Ki): 598 nM
Ki ([28]; read-out: pKi (converted)): 589 nM
Ki [29]: 734 nM
pKi [29]: 6.14
IC50 [30]: > 4 µM
inhibition [31]: 20.6%
inhibition [32]: 11%
inhibition [33]: 6.76%
inhibition [34]: 25%
